Assay results published in patent US6861561B2, “Substituted aromatic policyclic tertiary-heteroalkylamines useful for inhibiting cholesteryl ester transfer protein activity” (G. D. Searle & Co., priority 1999, dated 2005).
pIC50: −log10 of the molar value.

Target: T1, Human recombinant CETP (Homo sapiens, UniProt P11597)
T1 construct: made in house; host or cells: CHO cells (serum-free conditioned medium)
T1 sequence (P11597 18-493): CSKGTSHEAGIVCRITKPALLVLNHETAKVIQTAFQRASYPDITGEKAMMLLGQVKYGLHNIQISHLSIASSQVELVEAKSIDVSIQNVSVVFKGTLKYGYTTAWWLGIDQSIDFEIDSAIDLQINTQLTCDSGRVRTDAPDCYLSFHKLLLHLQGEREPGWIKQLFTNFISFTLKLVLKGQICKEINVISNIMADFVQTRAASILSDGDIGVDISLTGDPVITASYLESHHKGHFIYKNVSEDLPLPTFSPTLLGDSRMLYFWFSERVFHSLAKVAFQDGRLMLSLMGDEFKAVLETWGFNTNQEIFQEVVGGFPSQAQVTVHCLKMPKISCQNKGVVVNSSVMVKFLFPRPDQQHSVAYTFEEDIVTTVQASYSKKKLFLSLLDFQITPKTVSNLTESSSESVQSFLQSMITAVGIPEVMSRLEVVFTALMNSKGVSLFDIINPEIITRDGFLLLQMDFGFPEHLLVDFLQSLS
Experiment: Assay of CETP Inhibition Using Purified Components (Reconstituted Buffer Assay)
Format: biochemical
Settings: transfer of [3H]CE from HDL to LDL; 2 hours at 37° C.
Procedure: Assay of CETP Inhibition Using Purified Components (Reconstituted Buffer Assay)
The ability of compounds to inhibit CETP activity was assessed using an in vitro assay that measured the rate of transfer of radiolabeled cholesteryl ester ([^3H]CE) from HDL donor particles to LDL acceptor particles. Details of the assay are provided by Glenn, K. C. et al. (Glenn and Melton, “Quantification of Cholesteryl Ester Transfer Protein (CETP): A) CETP Activity and B) Immunochemical Assay of CETP Protein,” Meth. Enzymol., 263, 339-351 (1996)). Human recombinant CETP can be obtained from the serum-free conditioned medium of CHO cells transfected with a cDNA for CETP and purified as described by Wang, S. et al. (J. Biol. Chem. 267, 17487-17490 (1992)). To measure CETP activity, [^3H]CE-labeled-HDL, LDL, CETP and assay buffer (50 mM tris(hydroxymethyl)aminomethane, pH 7.4; 150 mM sodium chloride; 2 mM ethylenediamine-tetraacetic acid (EDTA); 1% bovine serum albumin) were incubated in a final volume of 200 μL, for 2 hours at 37° C. in 96 well plates. Inhibitors were included in the assay by diluting from a 10 mM DMSO stock solution into 16% (v/v) aqueous DMSO so that the final concentration of inhibitor was 800 μM. The inhibitors were then diluted 1:1 with CETP in assay buffer, and then 25 μL of that solution was mixed with 175 μL of lipoprotein pool for assay. Following incubation, LDL was differentially precipitated by the addition of 50 μL of 1% (w/v) dextran sulfate/0.5 M magnesium chloride, mixed by vortex, and incubated at room temperature for 10 minutes. A potion of the solution (200 μL) was transferred to a filter plate (Millipore). After filtration, the radioactivity present in the precipitated LDL was measured by liquid scintillation counting. […] The rate of [^3H]CE transfer using this assay was linear with respect to time and CETP concentration, up to 25-30% of [^3H]CE transferred.
This value was defined as the IC50.

SMILES	pIC50
OCC(c1ccc(C(F)(F)F)cc1)N(Cc1cccc(OC(F)(F)F)c1)c1cccc(Oc2ccccc2)c1 (stereo not shown) [1B, 2-[(3-phenoxy)phenyl[[(3-trifluoromethoxy)phenyl]methyl]amino]-2-[(4-trifluoromethyl)phenyl]ethanol]	5.22
CCCC(O)CN(Cc1cccc(OC(F)(F)F)c1)c1cccc(Oc2ccccc2)c1 (stereo not shown) [Example 2]	5.44
OC(COCc1ccco1)CN(Cc1cccc(OC(F)(F)F)c1)c1cccc(Oc2ccccc2)c1 (stereo not shown) [Example 7]	< 4.00
OCC(c1cccc(C(F)(F)F)c1)N(Cc1cccc(OC(F)(F)F)c1)c1cccc(Oc2ccccc2)c1 (stereo not shown) [Example 8]	5.15
OC(CN(Cc1cccc(OC(F)(F)C(F)F)c1)c1cccc(Oc2ccccc2)c1)c1ccccc1 (stereo not shown) [Example 10]	4.24
OC1CCCCC1N(Cc1cccc(OC(F)(F)F)c1)c1cccc(Oc2ccccc2)c1 (stereo not shown) [Example 26]	4.82
CC(O)CN(Cc1cccc(OC(F)(F)F)c1)Cc1cccc(OC(F)(F)F)c1 (stereo not shown) [compound 14]	4.05
OCC(O)CN(Cc1cccc(OC(F)(F)F)c1)Cc1cccc(OC(F)(F)F)c1 (stereo not shown) [compound 16]	< 4.00
OC(COc1ccccc1)CN(Cc1cccc(OC(F)(F)F)c1)Cc1cccc(OC(F)(F)F)c1 (stereo not shown) [compound 17]	< 4.00
OC(CN1CCOCC1)CN(Cc1cccc(OC(F)(F)F)c1)Cc1cccc(OC(F)(F)F)c1 (stereo not shown) [compound 19]	< 4.00

Now from value to molecule:

pIC50	SMILES
4.74	OC(CN(Cc1cccc(OC(F)(F)F)c1)c1cccc(Oc2ccccc2)c1)c1ccc(C(F)(F)F)cc1 (stereo not shown) [EX-1A, 2-[(3-phenoxy)phenyl[[(3-trifluoromethoxy)phenyl]methyl]amino]-1-[(4-trifluoromethyl)phenyl]ethanol]
4.36	OC(CN(Cc1cccc(OC(F)(F)F)c1)c1cccc(Oc2ccccc2)c1)c1ccccc1 (stereo not shown) [Example 3]
< 4.30	C=CC(O)CN(Cc1cccc(OC(F)(F)F)c1)c1cccc(Oc2ccccc2)c1 (stereo not shown) [Example 4]
< 4.30	OC(Cc1ccccc1)CN(Cc1cccc(OC(F)(F)F)c1)c1cccc(Oc2ccccc2)c1 (stereo not shown) [Example 5]
< 4.00	OC(COc1ccc(Cl)cc1)CN(Cc1cccc(OC(F)(F)F)c1)c1cccc(Oc2ccccc2)c1 (stereo not shown) [Example 6]
4.62	COC(=O)C(C)(O)CN(Cc1cccc(OC(F)(F)F)c1)c1cccc(Oc2ccccc2)c1 (stereo not shown) [Example 9]
< 4.00	FC(F)(F)Oc1cccc(CN(CCc2ccc(C(F)(F)F)cc2)c2cccc(Oc3ccccc3)c2)c1 [Example 27, N-[(3-phenoxy)phenyl]-N-[[(3-trifluoromethoxy)phenyl]methyl]-2-[(4-trifluoromethyl)phenyl]ethanamine]
< 4.00	FC(CN(Cc1cccc(OC(F)(F)F)c1)c1cccc(Oc2ccccc2)c1)c1ccc(C(F)(F)F)cc1 (stereo not shown) [Example 28, N-[(3-phenoxy)phenyl]-N-[[(3-trifluoromethoxy)phenyl]methyl]-2-[(4-trifluoromethyl)phenyl]-2-fluoro-ethanamine]
4.52	CCCC(O)CN(Cc1cccc(OC(F)(F)F)c1)Cc1cccc(OC(F)(F)F)c1 (stereo not shown) [compound 11]
4.85	OC(Cc1ccccc1)CN(Cc1cccc(OC(F)(F)F)c1)Cc1cccc(OC(F)(F)F)c1 (stereo not shown) [compound 12]
4.10	COCC(O)CN(Cc1cccc(OC(F)(F)F)c1)Cc1cccc(OC(F)(F)F)c1 (stereo not shown) [compound 13]
< 4.00	CCOC(=O)C(O)CN(Cc1cccc(OC(F)(F)F)c1)Cc1cccc(OC(F)(F)F)c1 (stereo not shown) [compound 15]
< 4.00	OC(COc1ccc(Cl)cc1)CN(Cc1cccc(OC(F)(F)F)c1)Cc1cccc(OC(F)(F)F)c1 (stereo not shown) [compound 18]
< 4.00	O=C1c2ccccc2C(=O)N1CC(O)CN(Cc1cccc(OC(F)(F)F)c1)Cc1cccc(OC(F)(F)F)c1 (stereo not shown) [compound 20]
< 4.00	COc1ccc(OCC(O)CN(Cc2cccc(OC(F)(F)F)c2)Cc2cccc(OC(F)(F)F)c2)cc1 (stereo not shown) [compound 21]
